Source: US8524778B2, “Biphenyl-4-yl-sulfonic acid arylamides and their use as therapeutic agents” (PIMCO 2664 Limited, priority 2007, dated 2013)
Entries after “also recorded” stand apart in the source; their conditions may differ.

Tests used:
[1] = In vivo pharmacokinetics: serum levels after oral dosage (HPLC/UV); settings: rat; for oral absorption (blood serum levels after oral administration): oral 10 mg/kg in corn oil, over 60 minutes, FIG. 1; for metabolic stability: oral 10 mg/kg, in vivo pharmacokinetics assay
Method: Absorption and metabolic stability were studied using an in vivo pharmacokinetics assay. Drug levels assessed using HPLC/UV.
Following overnight starvation, male Wistar rats (250 g) were given a bolus gavage of 500 μL of a solution of test compound in corn oil (5 mg/mL). Blood samples (1 mL, whole blood) were taken at various time intervals and the serum collected following centrifugation. Samples were frozen until required for analysis.
Ethyl acetate (4 mL) was added to the defrosted serum and the samples mixed for 20 minutes. Following centrifugation, the ethyl acetate layer was collected and evaporated under a stream of nitrogen. The residue was reconstituted in mobile phase and 20 μL injected onto the chromatogram.
Standard calibration curves were prepared for each of the test compounds and were linear in the range of 1 ng/mL to 250 ng/mL.
Mobile phase: 60% 25 mM ammonium acetate, pH 4; 40% acetonitrile.
Serum levels of the following compounds, following oral dosage (10 mg/kg) over the course of 60 minutes, were investigated in vivo in rats using an HPLC/UV detection system, as described above: […]

[2] = test system: mouse collagen-induced arthritis model; experiment: Collagen-induced arthritis (CIA) model, joint inflammation scoring; type: in vivo; settings: 10 mg/kg/day i.p.
Method: Collagen-induced arthritis (CIA) was induced in 8-week old male DBA/1 mice, by intradermal injection of 100 μL of chicken collagen type II (2 mg/mL) suspended in complete Freund's adjuvant supplemented with 2 mg/mL devitalised M. Tuberculosis into the base of the tail. This will lead to joint inflammation in >80% of the animals within 4 weeks. Treatment with ABD455 (10 mg/kg/day, delivered in corn oil) was started when joint inflammation became apparent in the first animals (in this experiment 15 days after injection), and the experiment terminated 3 weeks later. For each animal the scores for all four joints were added (maximal score=12).

[3] = test system: TNFα-stimulated phosphorylation of IκB; experiment: TNFα-stimulated phosphorylation of IκB in mouse macrophages (Western blot); type: cell-based; settings: 10 μM and 25 μM, 1 hour pre-treatment, 5 minutes TNFα, FIG. 4
Method: (§1) Bone marrow cells were flushed out of the long bones of 3-5 month old mice, and cultured in 10 cm tissue culture dishes for three days in α-MEM supplemented with 10% FCS, antibiotics, and recombinant mouse M-CSF (100 ng/mL). The cells were then harvested by trypsinisation, and re-plated in 6 well-plates (3×10^5 cells per well) and cultured in medium as described above for 2 more days. Cells were then serum starved and pre-treated with test compounds for 1 hour, followed by 5 minutes stimulation with TNFα. After stimulation, the cells were washed in PBS and homogenized in lysis buffer containing PBS, 0.1% (w/v) sodium dodecyl sulphate (SDS), 0.5% (w/v) sodium deoxycholate, and 2% (v/v) protease inhibitor cocktail. The cell lysates were centrifuged as 12,000 g for 10 minutes at 4° C., and the supernatant was collected and protein concentration determined using a Bio-Rad protein assay kit. Aliquots of the cell lysate containing 50 μg protein per lane were run on a 10% denaturing acrylamide gel and blotted onto a nylon membrane. The membranes were washed in Tris buffered saline (TBS) and incubated overnight at 4° C. with the relevant primary antibodies (phospho-IκB and phospho-p42/44 Erk, Cell Signalling Technology, 1:1000 dilution). […]

[4] = test system: TNFα-stimulated phosphorylation of p42/44 Erk; experiment: TNFα-stimulated phosphorylation of p42/44 Erk in mouse macrophages (Western blot); type: cell-based; settings: 10 μM and 25 μM, 1 hour pre-treatment, 5 minutes TNFα, FIG. 5
Method: as §1

[5] = test system: macrophage cell line J774; experiment: Alamar Blue macrophage J774 viability assay; type: cell-based; settings: Mus musculus; J774 cells, 72 hours with compound, n=5; Biological Study 1 table
Method: The assays are based on the survival of the J774 macrophage cell line; macrophages are closely related to osteoclasts.
J774 cells were plated at 10^4 cells per well in 100 μL αMEM (α Modified Eagle Medium) in 96-well plates and grown overnight. The next day, test compounds were added to the cultures, and cultures were continued for another 72 hours. At the end of the culture period, cell survival was determined using an Alamar Blue assay as previously described (see, e.g., Nociari et al., 1998).
Alamar Blue is an oxidation-reduction sensitive indicator. The dye itself is in the oxidised state, which is blue and non-fluorescent. […] Thus the transformation from oxidised form to reduced form can be measured by fluorimetric or colourimetric means. For fluorescence measurements, 530-560 nm excitation and 590 nm emission wavelengths are typically used. For colourimetric measurements, absorbance is measured at 570 nm (reduced form) and 600 nm (oxidised form) are typically used. A simple calculation is performed to determine the relative quantities of the two species. […]
Briefly, Alamar Blue (Biosource International) was added undiluted to the each well (1:10 v/v, 10 μL). The plate was incubated at 37° C. for 3-4 hours and the fluorescence was measured at 590 nm, with a 25 nm bandwidth. […]

O=S(=O)(NCCCCO)c1ccc(-c2ccc(F)cc2)cc1 [ABD200, 4′-fluoro-biphenyl-4-sulfonic acid (4-hydroxybutyl)-amide, reference compound]
oral absorption (blood serum levels after oral administration) [1]: not absorbed

Cc1cc(S(=O)(=O)NCCCCO)ccc1-c1ccc(F)cc1F [ABD295, 2′,4′-difluoro-2-methyl-biphenyl-4-sulfonic acid (4-hydroxy-butyl)-amide, reference compound]
sum of the joint inflammation scores (total joint score) of study group ([2]; after 22 days, n=8, untreated group 29, FIG. 3): 17 | oral absorption (blood serum levels after oral administration) [1]: not absorbed

CCc1cc(-c2ccc(F)cc2F)ccc1S(=O)(=O)NCCCCO [ABD385, 2′,4′-difluoro-3-ethyl-biphenyl-4-sulfonic acid (4-hydroxybutyl)-amide, reference compound]
oral absorption (blood serum levels after oral administration) [1]: not absorbed

O=S(=O)(Nc1cccc(CO)c1)c1ccc(-c2ccc(Cl)cc2Cl)cc1 [ABD455, 2′,4′-Dichloro-biphenyl-4-sulfonic acid (3-hydroxymethyl-phenyl)-amide]
effect on collagen-induced arthritis (in words) ([2]; 10 mg/kg/day): fully reverse the effects of collagen-induced arthritis; also recorded: much more effective in reversing the effects of collagen-induced arthritis than ABD295 | sum of the joint inflammation scores (total joint score) of study group ([2]; after 21 days, n=10, untreated group 47, FIG. 2): 3 | effect on TNFα-stimulated phosphorylation of IκB [3]: completely block | effect on TNFα-stimulated phosphorylation of p42/44 Erk [4]: completely block | metabolic stability [1]: good degree of metabolic stability

O=S(=O)(Nc1cccc(CO)c1)c1ccc(-c2ccc(F)cc2F)cc1 [ABD456, 2′,4′-Difluoro-biphenyl-4-sulfonic acid (3-hydroxymethyl-phenyl)-amide]
effect on TNFα-stimulated phosphorylation of IκB [3]: completely block | effect on TNFα-stimulated phosphorylation of p42/44 Erk [4]: completely block | metabolic stability [1]: good degree of metabolic stability

O=[N+]([O-])c1ccccc1-c1ccc(S(=O)(=O)Nc2cccc(CO)c2)cc1 [ABD514, 2′-Nitro-biphenyl-4-sulfonic acid (3-hydroxymethyl-phenyl)-amide]
IC50 [5]: > 4000 nM

O=S(=O)(Nc1ccc(CO)c(CO)c1)c1ccc(-c2ccc(Cl)cc2Cl)cc1 [ABD550, N-(3,4-Bis(hydroxymethyl)phenyl)-2′,4′-dichlorobiphenyl-4-sulfonamide]
IC50 [5]: 1200 ± 500 nM
